Patent US6461997B1, “Triazole sulfones having herbicidal activity” (Monsanto Technology LLC, priority 1999, dated 2002)

Assays:
[1] = test system: BRAPP (broadleaf signalgrass); experiment: Pre-emergence herbicidal activity, warm season; type: in vivo, Brachiaria platyphylla; details: GR80 = lowest tested rate (300, 100, 30, 10 g/ha) with 80% or greater inhibition; approx. 14 days after treating; 30/21° C.
How it was run: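 Activity is expressed as the rate giving 80% inhibition, with 300, 100, 30 and 10 g/ha typically tested. An asterisk marks activity short of 80% at the top rate. Warm-season grasses were held at 30/21 °C; cool-season blackgrass and wild buckwheat at 18/13 °C; scoring at about 14 days.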

[2] = test system: POLCO (wild buckwheat); experiment: Pre-emergence herbicidal activity, cool season; type: in vivo, Polygonum convolvulus; details: lowest tested rate with 80% or greater inhibition; rates 300, 100, 30, 10 g/ha; about 14 days
How it was run: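 Read-out: GR80, derived from percent growth inhibition relative to untreated plants at roughly 14 days after planting and treatment. Compounds went onto the surface of freshly seeded soil at 10–300 g/ha. Day/night regimes were 30/21 °C for millet and crabgrass, 18/13 °C for blackgrass and buckwheat.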

[3] = test system: AGSST (creeping bentgrass); experiment: Pre-emergence herbicidal activity, cool season; type: in vivo, Agrostis stolonifera; details: GR80 = lowest tested rate (300, 100, 30, 10 g/ha) with 80% or greater inhibition; approx. 14 days after treating; 18/13° C.
How it was run: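 Seeds sown in sterilised fertilised topsoil received surface-applied compound in 50:50 acetone/water, typically at 300, 100, 30 and 10 g/ha, then greenhouse-grown at 30/21° C (warm-season species) or 18/13° C (cool-season species). Percent inhibition versus untreated plants was scored at about 14 days, giving GR80; an asterisk marks activity short of 80% at the top rate.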

[4] = test system: LOLMG (annual ryegrass); experiment: Pre-plant incorporated (PPI) herbicidal activity, cool season; type: in vivo, Lolium multiflorum; details: for Percent inhibition LOLMG: weed, PPI application
Experimental: (§1) In another set of tests, the pre-plant incorporated (PPI) activity of compounds of this invention was evaluated on the same species as for the pre-emergence tests described above. In the PPI tests the following procedure, designed to simulate PPI application, was used.
(§2) A pre-prepared topsoil mixture (described above) was placed in a pot and compacted to a depth of 1.0 to 1.25 cm from the top of the pot. Seeds of each of several monocotyledonous and dicotyledonous annual plant species were placed on top of the soil. A sufficient quantity of soil to cover the seeds and level fill the pot was weighed into an open container. A known amount of the test compound was dissolved or suspended in an organic solvent and applied by spraying to this cover soil. The cover soil was thoroughly mixed to distribute the test compound throughout the cover soil, and was then applied as a cover layer over the seeds. Untreated soil was used as a cover layer for control pots. After treatment the plants were placed in a greenhouse where they received 0.64 cm of overhead irrigation. All subsequent watering consisted of a light overhead mist and/or subirrigation as needed for germination and growth. Tables 9 and 10 below relate to warm season plant species which were placed after pre-emergence treatment in a greenhouse with a 30/21° C. day/night temperature regime. Tables 11 and 12 below relates to cool season plant species placed after pre-emergence treatment in a greenhouse or growth chamber with an 18/13° C. day/night temperature regime. Only the compounds of Examples 1, 6, 8, 11, 13 and 15-20 were included in PPI tests.
(§3) Approximately 14 days after planting and treating, the plants were observed and herbicidal efficacy recorded as percent inhibition by comparison with untreated plants.

[5] = test system: AEGCY (jointed goatgrass); experiment: as above; type: in vivo, Aegilops cylindrica; details: for Percent inhibition AEGCY: weed, PPI application
Experimental: as §1, §2, §3

[6] = test system: POAAN (annual bluegrass); experiment: as above; type: in vivo, Poa annua; details: weed, PPI application
Experimental: as §1, §2, §3

[7] = test system: BROTE (downy brome); experiment: Post-emergence herbicidal activity, cool season; type: in vivo, Bromus tectorum; details: abraded plants sprayed at 300, 100, 30 and 10 g/ha; about 14 days after treatment
How it was run: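 Abraded seedling foliage receives a spray of test compound at four rates, 300 to 10 g/ha, in 50:50 acetone/water at 3,100 l/ha. After about 14 days in an 18/13° C. day/night greenhouse, inhibition is scored against abraded untreated controls and expressed as GR80.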

[8] = pre-plant incorporated, lowest tested rate with 80% or greater inhibition, about 14 days

In the case of `C=C(CC(F)(F)S(=O)(=O)c1ncn(C(=O)N(CC)CC)n1)C[Si](C)(C)C` [Example 20], the “Pre-emergence activity (GR80) BRAPP” value [1] is reported as 300 g/ha, the “Pre-emergence activity GR80, POLCO” value [2] is reported as “* (activity observed, at least at highest rate, but <80% inhibition)” and the “Pre-emergence activity (GR80) AGSST” value [3] is reported as 300 g/ha. The “PPI activity GR80, LOLMG” value [4, 8] was “* (activity observed, at least at highest rate, but <80% inhibition)”, the “Percent inhibition LOLMG” value ([4]; 10 g/ha) was 0% and the “Percent inhibition LOLMG” value ([4]; 30 g/ha) was 30%. The “Percent inhibition LOLMG” value ([4]; 100 g/ha) was 60%, the “Percent inhibition LOLMG” value ([4]; 300 g/ha) was 85% and the “Percent inhibition LOLMG” value ([4]; 900 g/ha) was 75%. For the same compound, the “PPI activity GR80, AEGCY” value [5, 8] was “* (activity observed, at least at highest rate, but <80% inhibition)”, the “Percent inhibition AEGCY” value ([5]; 10 g/ha) was 0% and the “Percent inhibition AEGCY” value ([5]; 30 g/ha) was 0%. The “Percent inhibition AEGCY” value ([5]; 100 g/ha) was 0%, the “Percent inhibition AEGCY” value ([5]; 300 g/ha) was 0% and the “Percent inhibition AEGCY” value ([5]; 900 g/ha) was 0%. For the same compound, the “Percent inhibition POAAN” value ([6]; 10 g/ha) was 0%, the “Percent inhibition POAAN” value ([6]; 30 g/ha) was 30% and the “Percent inhibition POAAN” value ([6]; 100 g/ha) was 60%. The “Percent inhibition POAAN” value ([6]; 300 g/ha) was 90%, the “Percent inhibition POAAN” value ([6]; 900 g/ha) was 99% and the “Post-emergence activity GR80, BROTE” value [7] was “[empty]”.
